“Also recorded” adds a separate entry of the source. Like-named read-outs stand apart in the source and are kept apart here. No end group written: not given here.
Assays:
[1] = tested on: human coronary microarteries; assay: Videomicroscopy of relaxation of pre-constricted, pressurized human coronary microarteries; type: cell-based; settings: for relaxation of vessels without functional endothelium, % of the maximum KCl-evoked contraction: de-endothelialized / endothelium destroyed microarteries; for relaxation, % of the maximum ET-1-evoked contraction: agonist alone; for relaxation in the presence of bupranolol: beta1-2-3 antagonist bupranolol; for relaxation, % of the maximum ET-1-evoked contraction, in the presence of nadolol: pre-treatment with beta1-2 antagonist nadolol; for relaxation of de-endothelialized vessels in the presence of nadolol: de-endothelialized microarteries; for relaxation, % of the maximum KCl-evoked contraction: pre-constricted with high (50 mmol/L) KCl, functional endothelium
Method: Vessels were cannulated with dual glass micropipettes and secured with 10-0 nylon monofilament sutures in a Plexiglas isolated organ chamber circulated with oxygenated PSS (37° C.) and placed on an inverted microscope (Axiovert S100, Zeiss, Germany) connected to a CCD camera. Microvessels were pressurized with a PSS-filled burette manometer at 60 mmHg (a pressure chosen to avoid stretch-dependent effects typically manifested at higher pressures) in a no-flow state. Digitized imaging (IONOPTIX Corporation, Milton, Mass.) allowed continuous monitoring of vessel external diameter. All experiments were carried out in the presence of cyclooxygenase inhibitor (indomethacin, 10 μmol/L). After 30-45 min equilibration, vessels were contracted with high KCl solution (PSS, 50 mmol/L KCl replacing NaCl stoechiometrically). At the maximum of contraction, vasorelaxation with Substance P (100 nmol/L) was systematically tested to assess the presence of a functional endothelium. In some experiments, the endothelium was selectively destroyed by an air bolus. All reagents were added in the bathing solution.

[2] = tested on: cultured endothelial cells; assay: NO release in cultured endothelial cells; type: cell-based; settings: for NO release in the presence of L-NAME: 10 μM; for NO release: at 10 μM
Method: (§1) Human and rat cardiac coronary resistance microarteries (70-170μ diameter) were mounted in dual glass micropipettes chambers in no-flow state and constant pressure for vasomotion analysis by videomicroscopy. In addition, calcium transients and NO release were measured in cultured endothelial cells with an amperometric electrode and Fura-2 fluorescence, respectively. Phosphorylation of eNOS was measured in the same cells with phospho-specific antibodies.

eNOS = eNOS Threonine 495 phosphorylation in cultured endothelial cells (phospho-specific antibodies); type: cell-based
Method: as §1

[3] = tested on: cultured endothelial cells; assay: Calcium transients (Ca fluorescence) in cultured endothelial cells; type: cell-based; settings: for Ca signal increase after pre-treatment with nadolol: beta1-2 antagonist nadolol; for Ca signal increase after pre-treatment with bupranolol: combined beta1-2-3 antagonist bupranolol; for increase of Ca fluorescence: endothelial cells, compound alone
Method: as §1

[4] = tested on: rat coronary microvessels; assay: Videomicroscopy of relaxation of rat coronary microvessels; type: cell-based; settings: for max relaxation, % of PGF2alpha pre-contracted tone: at 10 μM
Method: as §1

[5] = tested on: coronary microarteries from mice deficient for the beta3-adrenoceptor; assay: Relaxation of coronary microarteries from mice deficient for the beta3-adrenoceptor; type: cell-based, mouse
Method: Human and rat cardiac coronary resistance microarteries (70-170μ diameter) were mounted in dual glass micropipettes chambers in no-flow state and constant pressure for vasomotion analysis by videomicroscopy. In addition, calcium transients and NO release were measured in cultured endothelial cells with an amperometric electrode and Fura-2 fluorescence, respectively. Phosphorylation of eNOS was measured in the same cells with phospho-specific antibodies. […] Relaxation to Nebivolol was blunted in coronary microarteries from mice deficient for the beta3-adrenoceptor (C).

human beta3 AR = assay: Akt and eNOS phosphorylation in neonatal cardiac myocytes with adenoviral expression of human beta3 AR; type: cell-based, mouse; settings: agonist-mediated activation, Isoproterenol+nadolol; myocytes from C57BI6 control and cardiac eNOS transgene mice
aortic rings = assay: Mouse aortic ring angiogenesis (new tubes formation); type: cell-based; settings: for angiogenic response in beta3 adrenoceptor deficient rings: aortic rings from beta 3-KO mice
[6] = tested on: human coronary microarteries; assay: Measurement of smooth muscle membrane potential of isolated human coronary microvessels; type: cell-based; settings: in the presence of NO synthase and cyclooxygenase inhibition
Method: Human right atrial and left ventricular tissue specimens obtained from patients undergoing cardiac surgery were placed in physiological saline solution (PSS) containing (mmol/L): NaCl, 120; KCl, 5.9; NaHCO3, 25; dextrose, 17.5; CaCl2, 2.5; MgCl2, 1.2; NaH2PO4, 1.2 (pH 7.4) maintained at 0-4° C., and carefully dissected to isolate microarteries. Coronary microarteries (70-170 μm diameter, 1-2 mm length), rapidly cleaned of adherent connective tissue were either kept at −80° C. until homogenization or used for functional experiments.
Microvessels were mounted in an organ bath continuously circulated (6 mL/min) with oxygenated PSS at 37° C. All experiments were performed in the presence of a NO synthase inhibitor (L-w-nitroarginine, 100 μmol/L) and indomethacin (10 μmol/L). After 60 minutes of equilibration, measurement of the smooth muscle membrane potential (Em) was made with a glass microelectrode (Clark, Electromedical instruments, type GC 120F-15) filled with 1.5M KCl. The input resistance of the microelectrodes varied between 50 and 80 MΩ. Differences in electric potential were measured with a Dagan amplifier (8100, Minneapolis, Minn., U.S.A.) and recorded. Criteria for a successful impalement were (1) an abrupt drop in voltage on entry of microelectrode into the cell, (2) stable membrane potential for at least 2 min, and (3) a sharp return to zero on withdrawal of the electrode.

[7] = rat microvessels, listed as Nebivolol
[8] = ET-1 pre-constricted, intact endothelium
[9] = ET-1 pre-constricted, intact endothelium, listed as isoproterenol
[10] = ET-1 pre-constricted, intact endothelium, listed as BRL 37344

OC(CNCC(O)C1CCc2cc(F)ccc2O1)C1CCc2cc(F)ccc2O1 (stereo not drawn) [nebivolol]
dependence of relaxation on endothelium (Example 2) ([1]; human coronary microvessels): dependent on a functional endothelium
relaxation under NOS inhibition (Example 2) ([1]; human coronary microvessels, NOS inhibition): sensitive to NOS inhibition
relaxation in the presence of nadolol (Example 2) ([1]; human coronary microvessels, nadolol): insensitive
NO release in the presence of L-NAME [2]: 26.5±4.3 nmoles/μg prot
NO release in the presence of L-NAME ([2]; listed as Nebivolol): sensitive to L-Name
NO release [2]: 117 nmol/µg protein
NO release ([2]; listed as Nebivolol): evoked a release of NO
phosphorylation of Threonine 495 on eNOS (eNOS): dephosphorylated
phosphorylation of Threonine 495 on eNOS (eNOS; listed as Nebivolol): time-dependent dephosphorylation
Ca signal increase after pre-treatment with nadolol [3]: no effect
Ca signal increase after pre-treatment with nadolol ([3]; listed as Nebivolol): unchanged
Ca signal increase after pre-treatment with bupranolol [3]: significantly blunted
Ca signal increase after pre-treatment with bupranolol ([3]; listed as Nebivolol): sensitive to bupranolol
increase of Ca fluorescence [3]: 91.8±23.7%
increase of Ca fluorescence ([3]; listed as Nebivolol): cytosolic calcium increase
max relaxation, % of PGF2alpha pre-contracted tone [4]: dose-dependent-relaxation
max relaxation, % of PGF2alpha pre-contracted tone ([4]; listed as Nebivolol): 86±6%
relaxation under NOS inhibition ([4]; rat microvessels, NOS inhibition): sensitive to NOS inhibition
relaxation in the presence of bupranolol ([4]; rat microvessels): sensitive to bupranolol
relaxation in the presence of bupranolol [4, 7]: prevented
relaxation in the presence of nadolol ([4]; rat microvessels): not to nadolol
relaxation in the presence of nadolol [4, 7]: unaffected
relaxation in microvessels from mice genetically deficient in beta3-AR [5]: blunted

Substance P: endothelium-specific agonist (RPKPQQFFGLM; ends and bridges not checked; UniProt P20366 58-68, looked up)
relaxation of vessels without functional endothelium, % of the maximum KCl-evoked contraction [1]: absence of relaxation

CC(C)NCC(O)c1ccc(O)c(O)c1 (stereo not drawn) [isoprenaline]
relaxation, % of the maximum ET-1-evoked contraction [1, 8]: ~50%
relaxation, % of the maximum ET-1-evoked contraction [1, 9]: by half
relaxation in the presence of bupranolol [1, 8]: blocked; also recorded: abolished
relaxation in the presence of bupranolol [1, 9]: fully abrogated
relaxation, % of the maximum ET-1-evoked contraction, in the presence of nadolol [1, 8]: insensitive; also recorded: resistant
relaxation, % of the maximum ET-1-evoked contraction, in the presence of nadolol [1, 9]: unaffected
relaxation of vessels without functional endothelium, % of the maximum KCl-evoked contraction [1]: 21.0±6.3%
relaxation of de-endothelialized vessels in the presence of nadolol ([1]; nadolol, listed as Iso): abrogated
relaxation of de-endothelialized vessels in the presence of nadolol ([1]; nadolol, listed as isoproterenol): 1.4±0.5%
phosphorylation of Akt and downstream eNOS (human beta3 AR): increased phosphorylation of Akt and downstream eNOS

CCOC(=O)COc1ccc2c(c1)C[C@@H](NC[C@H](O)c1cccc(Cl)c1)CC2 [SR58611]
new tubes formation compared to untreated controls (aortic rings; aortic rings from C57BI6 mice treated in vitro): time-dependent increase in new tubes formation
angiogenic response in beta3 adrenoceptor deficient rings (aortic rings): completely lost

C[C@H](Cc1ccc(OCC(=O)O)cc1)NC[C@H](O)c1cccc(Cl)c1 [BRL37344]
relaxation of ET-1 preconstricted vessels under NO synthase inhibition ([1]; ET-1 pre-constricted, L-w-nitroarginine): unaffected
relaxation, % of the maximum ET-1-evoked contraction [1, 8]: ~50%
relaxation, % of the maximum ET-1-evoked contraction [1, 10]: 52.3±13.2%
relaxation in the presence of bupranolol [1, 8]: blocked; also recorded: abolished
relaxation in the presence of bupranolol [1, 10]: fully abrogated
relaxation, % of the maximum ET-1-evoked contraction, in the presence of nadolol [1, 8]: insensitive; also recorded: resistant
relaxation, % of the maximum ET-1-evoked contraction, in the presence of nadolol [1, 10]: 54.9±16.8%
max relaxation, % of ET-1 pre-contracted tone ([1]; Example 2, nebivolol at 10 μM): reproduced
relaxation of KCl-preconstricted vessels under NO synthase inhibition ([1]; KCl pre-constricted, L-w-nitroarginine 100 μmol/L): totally abrogated
relaxation of vessels without functional endothelium, % of the maximum KCl-evoked contraction [1]: absent; also recorded: not observed; also recorded: failed to relax
relaxation, % of the maximum KCl-evoked contraction [1]: 15.5%
relaxation, % of the maximum KCl-evoked contraction ([1]; listed as BRL 37344): 15.5±5.3%
smooth muscle membrane potential [6]: significant hyperpolarization

NC[C@H](O)c1ccc(O)c(O)c1 [norepinephrine]
relaxation, % of ET-1 contraction ([1]; 1 micromol/l, intact endothelium, pretreated with nadolol and phentolamine): 41.4±7%

VEGF
angiogenic response in beta3 adrenoceptor deficient rings (aortic rings): angiogenic response

Reference: patent US20080221203A1, “Use of Agonists and Antagonists of Beta Adrenoceptors for Treating Arterial Disease” (UNIVERSITY CATHOLIQUE DE LOUVAIN, priority 2004, published 2008)
